Assay results reported in patent publication US20110038921A1, “METHODS AND COMPOSITIONS FOR TEMPORAL RELEASE OF AGENTS FROM A BIODEGRADABLE SCAFFOLD” (Clemson University Research Foundation, priority 2009, published 2011).

Key:
[1] = tested on: MMP-1; test: LPS-stimulated MMP-1 expression in U937 macrophages, ELISA of culture medium; assay type: cell-based, human; details: 10 μM PD98059, 100 ng/ml LPS, 24 h
Procedure: (§1) FIGS. 2A-D. A. E. coli and A. actinomycetemcomitans LPS activate MAPK pathways in macrophages. RAW 264.7 cells were stimulated for 15 min with LPS and whole cell lysates were used for Western blot analysis. […] B. A. actinomycetemcomitans LPS stimulation of IL-6 requires p38 MAPK signaling. Wild-type and p38 MAPK deficient cells were stimulated with A. actinomycetemcomitans LPS for 24 hrs (white bars). Cells were rescued with pcDNA containing p38a cDNA (p38α) in p38^−/− cells but the dominant negative mutant (p38AF) was not able to restore LPS-induced IL-6 expression. C. […] U937 macrophages were treated with 100 ng/ml of LPS in the presence or absence of 10 μM of PD98059 for 24 h. After the treatment, MMP-1 in culture medium was quantified by ELISA. D. Nuclear proteins were extracted from cells for electrophoretic mobility shift assay to determine AP-1 DNA-binding activity.

[2] = tested on: AP-1; test: AP-1 DNA-binding activity, electrophoretic mobility shift assay on nuclear proteins of U937 macrophages; assay type: cell-based, human; details: 10 μM PD98059, 100 ng/ml LPS, 24 h
Procedure: as §1

[3] = tested on: IL-6; test: U937 macrophages exposed to inhibitor-embedded scaffold with LPS, IL-6 ELISA; assay type: cell-based, human; details: inhibitor released from PLGA-collagen scaffold; LPS 100 ng/ml; 24 hrs
Procedure: (§2) FIGS. 9A-B. Human U937 macrophages were exposed to control scaffold, PD98059-embedded scaffold, or SB203580-embedded scaffold in the presence or absence of LPS (100 ng/ml) for 24 hrs. After the exposure, culture medium was collected for ELISA to quantify IL-6 (A) or MMP-1 (B).

[4] = tested on: MMP-1; test: U937 macrophages exposed to inhibitor-embedded scaffold with LPS, MMP-1 ELISA; assay type: cell-based, human; details: inhibitor released from PLGA-collagen scaffold; LPS 100 ng/ml; 24 hrs
Procedure: as §2

[5] = Isoelectric point / hydrophobicity; assay type: physicochemical
[6] = tested on: MMP expression; details: macrophages, fibroblasts, endothelial cells, epithelial cells; cited from earlier work
[7] = tested on: MMP-1; details: rabbit model of osteoarthritis; cited from earlier work
[8] = collagen; with literature reference 123; cited from earlier work

| Compound | IL-6 in LPS stimulated cultures [3] | MMP-1 in LPS stimulated cultures [4] | MMP expression [6] | further results |
| --- | --- | --- | --- | --- |
| COc1cccc(-c2cc(=O)c3ccccc3o2)c1N [PD98059] | significant inhibition | significant inhibition | inhibit MMP expression | LPS-stimulated MMP-1 expression [1]: inhibitory effect; AP-1 DNA-binding activity [2]: inhibitory effect; Hydrophobicity [5]: hydrophobic; MMP-1 production by chondrocytes [7]: decreased MMP-1 production |
| C[S+]([O-])c1ccc(-c2nc(-c3ccncc3)c(-c3ccc(F)cc3)[nH]2)cc1 (centres unmarked) [SB203580] | significant inhibition | significant inhibition | – | – |
| N#CC(=C(/N)Sc1ccccc1N)/C(C#N)=C(\N)Sc1ccccc1N [U0126] | – | – | inhibit MMP expression | – |
| Collagen | – | – | – | Isoelectric point [8]: 5.5 |
